Source: patent publication USRE47689E1, “Compounds for treating spinal muscular atrophy” (PTC Therapeutics, Inc., priority 2011, dated 2019)

What was measured:
[1] = system: Smn protein; assay: Smn protein levels in tissues of Δ7 SMA mice of the survival study; assay type: in vivo, mouse; conditions: neonatal Δ7 SMA mice; brain and muscle; treated until P47-55 (Compound 35), until P68 (Compound 626)
Description: Protocol. The tissue samples in Safe-Lock tubes are weighed and the volume of RIPA buffer containing the protease inhibitor cocktail is added based on the weight to volume ratios for each type of tissue: Brain (50 mg/mL), Muscle (50 mg/mL) and Spinal Cord (25 mg/mL).
Tissues are homogenized using the TissueLyzer by bead milling. 5 mm stainless steel beads are added to the sample and shaken vigorously for 5 minutes at 30 Hz in the TissueLyzer. The samples are then centrifuged for 20 minutes at 14,000×g in a microcentrifuge and the homogenates transferred to the PCR plate. […] Fluorescence for each well of the plate at 665 nm and 620 nm is measured on an EnVision multilabel plate reader (Perkin-Elmer). The total protein in the tissue homogenate is measured using the BCA assay according to the manufacturer's protocol.
The normalized fluorescence signal is calculated for each sample, Blank and vehicle control well by dividing the signal at 665 nm by the signal at 620 nm. Normalizing the signal accounts for possible fluorescence quenching due to the matrix effect of the tissue homogenate. […] The ΔF value for each tissue sample well is divided by the total protein quantity (determined using the BCA assay) for that tissue sample. […]
Protocol. […] The number of surviving mice in each group is recorded every day and plotted as a percent of total number of mice. […]

[2] = system: SMN2 minigene (full length SMN2 minigene mRNA containing SMN2 exon 7); assay: SMN2 minigene mRNA splicing RT-qPCR assay in cultured cells; assay type: cell-based, human; conditions: for exon 7 inclusion / SMN2mini FL mRNA relative to vehicle control: HEK293H cells with SMN2-A minigene; for exon 7 inclusion: relative to untreated cells; for SMN2mini FL mRNA relative to vehicle control: rising concentrations, 24 hr; for EC (1.5-fold): Homo sapiens, HEK293-H, HEK293H cells stably transfected with SMN2-A minigene, 24 hours, 7-point concentration curve, 1.5-fold relative to vehicle-treated cells, read-out: EC1.5x for production of full length SMN2 mRNA
Outline: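 Read-out: full-length (exon 7-included) SMN2 minigene mRNA by multiplex RT-qPCR with GAPDH, efficiency-corrected (1+E)^−Ct, GAPDH-normalized and divided by vehicle. Stably transfected HEK293H cells, 24 h compound exposure, duplicates per concentration. Value is EC1.5x, reported as star ranges.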

Compound | Smn protein expression in tissues relative to vehicle treated and age-matched heterozygous mice [1] | exon 7 inclusion [2] | SMN2mini FL mRNA relative to vehicle control [2] | EC (1.5-fold) [2] [µM]
CC(C)NCCc1ccc2cc(-c3nc4c(Cl)cccc4s3)c(=O)oc2c1 [Cpd 35, 3-(4-chloro-1,3-benzothiazol-2-yl)-7-[2-(propan-2-ylamino)ethyl]-2H-chromen-2-one] | increased Smn protein expression | fully restored exon 7 inclusion relative to untreated cells | increased SMN2mini FL mRNA at low concentrations | 0.3 to 1
CCN1CCN(c2ccc3cc(-c4cn5cc(C)nc(C)c5n4)c(=O)oc3c2)C[C@@H]1C [Cpd 626, 3-(6,8-dimethylimidazo[1,2-a]pyrazin-2-yl)-7-[(3S)-4-ethyl-3-methylpiperazin-1-yl]-2H-chromen-2-one] | increased Smn protein expression | fully restored exon 7 inclusion relative to untreated cells | increased SMN2mini FL mRNA at low concentrations | < 0.1
